Assay results reported in patent US20220313698A1, “MODULATORS OF CYSTIC FIBROSIS TRANSMEMBRANE CONDUCTANCE REGULATOR” (Vertex Pharmaceuticals Incorporated, priority 2019, published 2022).

Biological target: CFTR-mediated chloride transport (Homo sapiens, UniProt P13569)
Test: Corrector Assay A - membrane potential dye assay (enteroid cells)
Details: for Corrector Assay A % activity: % of chloride transport of triple combination control (1 μM (14S)-dispiro macrocycle + 3 μM tezacaftor + 300 nM ivacaftor); for EC50: read-out: Corrector Assay A EC50, human intestinal enteroid cells, 18-24 h incubation, acute 10 μM forskolin + 300 nM ivacaftor

Compound | Corrector Assay A % activity | EC50
CC(C)(C)c1ccc2c(n1)N1C[C@@H](CC[C@@H](c3cc(CCN)ccn3)Nc3cccc(n3)S(=O)(=O)NC2=O)CC1(C)C (single isomer, unassigned) [Compound 85] | ++ (++ is 30-60%) | < 1 µM
CC(C)(C)c1ccc2c(n1)N1C[C@@H](CC[C@@H](c3cccc(C4CCOCC4)n3)Nc3cccc(n3)S(=O)(=O)NC2=O)CC1(C)C [Compound 147] | + (+ is <30%) | > 3 µM
CC(C)(C)c1ccc2c(n1)N1C[C@@H](CCC(c3cc(C4COC4)ccn3)Nc3cccc(n3)S(=O)(=O)NC2=O)CC1(C)C (single isomer, unassigned) [Compound 26] | +++ (+++ is >60%) | < 1 µM
CC(C)(C)c1ccc2c(n1)N1CC(CC1(C)C)OCCNc1cccc(n1)S(=O)(=O)NC2=O (single isomer, unassigned) [Compound 259, 8-tert-Butyl-12,12-dimethyl-15-oxa-2λ^6-thia-3,9,11,18,23-pentaazatetracyclo[17.3.1.111,14.05,10]tetracosa-1(22),5(10),6,8,19(23),20-hexaene-2,2,4-trione] | ++ (++ is 30-60%) | < 1 µM
CC(C)(C)c1ccc2c(n1)N1C[C@@H](CCC(c3ccncc3)Nc3cccc(n3)S(=O)(=O)NC2=O)CC1(C)C (single isomer, unassigned) [Compound 232] | +++ (+++ is >60%) | < 1 µM
CC(O)CC1CC[C@@H]2CN(c3nc(C(C)(C)C)ccc3C(=O)NS(=O)(=O)c3cccc(n3)N1)C(C)(C)C2 (single isomer, unassigned) [Compound 20] | ++ (++ is 30-60%) | < 1 µM
CN(C)Cc1ccc(C2CC[C@@H]3CN(c4nc(C(C)(C)C)ccc4C(=O)NS(=O)(=O)c4cccc(n4)N2)C(C)(C)C3)nc1 (some centres unmarked) [Compound 103] | ++ (++ is 30-60%) | < 1 µM
CC(C)(C)c1ccc2c(n1)N1C[C@@H](CC[C@@H](C(=O)NC3CC4(CCNCC4)C3)Nc3cccc(n3)S(=O)(=O)NC2=O)CC1(C)C [Compound 223] | + (+ is <30%) | 
CC(C)(C)c1ccc2c(n1)N1C[C@@H](CC[C@H](c3cccc(C(N)=O)n3)Nc3cccc(n3)S(=O)(=O)NC2=O)CC1(C)C [Compound 70, 6-[(14S,17R)-8-tert-butyl-12,12-dimethyl-2,2,4-trioxo-2λ^6-thia-3,9,11,18,23-pentaazatetracyclo[17.3.1.111,14.05,10]tetracosa-1(22),5,7,9,19(23),20-hexaen-17-yl]pyridine-2-carboxamide] | ++ (++ is 30-60%) | < 1 µM
CC(C)COc1cccc(-c2ccc3c(n2)N2C[C@@H](CC[C@H](c4ccccn4)Nc4cccc(n4)S(=O)(=O)NC3=O)CC2(C)C)n1 [Compound 315] | +++ (+++ is >60%) | < 1 µM
CC1(C)C[C@@H]2CC[C@H](c3ccccn3)Nc3cccc(n3)S(=O)(=O)NC(=O)c3ccc(Br)nc3N1C2 [Compound 246, (14S,17R)-8-bromo-12,12-dimethyl-17-(pyridin-2-yl)-2λ^6-thia-3,9,11,18,23-pentaazatetracyclo[17.3.1.111,14.05,10]tetracosa-1(22),5,7,9,19(23),20-hexaene-2,2,4-trione] | ++ (++ is 30-60%) | < 1 µM
CC(C)(C)c1ccc2c(n1)N1C[C@@H](CC[C@@H](c3ccc(C(F)(F)F)cn3)Nc3cccc(n3)S(=O)(=O)NC2=O)CC1(C)C (single isomer, unassigned) [Compound 81] | + (+ is <30%) | < 1 µM
